# From patent publication US20250171457A1, “NITROGEN-CONTAINING HETEROCYCLIC COMPOUND HAVING NRF2 ACTIVATION EFFECT” (CHUGAI SEIYAKU KABUSHIKI KAISHA, priority 2022, published 2025)
# Like-named read-outs stand apart in the source and are kept apart here.
# Columns and labels:
# [1] = system: Nrf2 transcriptional activity (pARE-Luc reporter) in HepG2 cells; assay: In vitro Nrf2 transcriptional activity measurement by ARE-dependent reporter assay in HepG2 cell; format: cell-based, human
# How it was run: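 HepG2 cells transfected with pGL4.37 (pARE-Luc), replated onto compound and incubated 4 h at 37° C; luciferase read by Bright-Glo luminescence. Response normalized to 100% set by a reference compound at 3.75 μM; EC50 from dose-response curve.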
# [2] = system: Nqo1 (NAD(P)H quinone dehydrogenase 1) mRNA, Nrf2 downstream molecule; assay: In vivo Nrf2 transcriptional activity measurement (Nqo1 mRNA in organs by qPCR); conditions: Mus musculus, C57BL/6J mice, 7 to 8 hours
# Experimental: Test Example 2: In Vivo Nrf2 Transcriptional Activity Measurement
# A test compound (solvent: 10 vol % dimethyl sulfoxide/50 mM glycine/32 mM sodium hydroxide/physiological saline) was administered to C57BL/6J mice (7-8 weeks old), which were euthanized by whole blood collection under isoflurane anesthesia 7 to 8 hours later, followed by the collection of various organs. mRNA was purified from the collected organs, and the mRNA expression level of Mapk1 as an internal control and the mRNA expression level of Nqo1 (NAD(P)H quinone dehydrogenase 1) as a typical Nrf2 downstream molecule were each measured by qPCR. The Nqo1 mRNA expression level was quantified by comparative CT, and an expression level ratio to a non-administration group was calculated. The administration of the test compound elevated the Nqo1 mRNA expression level in the various organs, confirming that the test compound also has a Nrf2-activating effect in vivo.
# [3] = Homo sapiens, HepG2 cells transfected with pARE-Luc, 4 hours at 37° C., luciferase activity of Example 1-54 or Example 17-23 at 3.75 μM defined as 100%
# [4] = ip, Intraperitoneal, kidney, read-out: Nqo1 mRNA expression level ratio to non-administration group, Kidney
# [5] = ip, Intraperitoneal, liver, read-out: Nqo1 mRNA expression level ratio to non-administration group, Liver
# [6] = ip, Intraperitoneal, lung, read-out: Nqo1 mRNA expression level ratio to non-administration group, Lung
# [7] = Oral, kidney, read-out: Nqo1 mRNA expression level ratio to non-administration group, Kidney
# [8] = Oral, liver, read-out: Nqo1 mRNA expression level ratio to non-administration group, Liver
# [9] = Oral, lung, read-out: Nqo1 mRNA expression level ratio to non-administration group, Lung
Structure (SMILES),"EC50 [1, 3] [nM]","fold induction at 10 mg/kg [2, 4]","fold induction at 10 mg/kg [2, 5]","fold induction at 10 mg/kg [2, 6]","fold induction at 15 mg/kg [2, 4]","fold induction at 15 mg/kg [2, 5]","fold induction at 15 mg/kg [2, 6]","fold induction at 30 mg/kg [2, 7]","fold induction at 30 mg/kg [2, 8]","fold induction at 30 mg/kg [2, 9]",also measured
"O=C(O)c1cc(F)c(-c2cccc3c2OCN(C(=O)c2c(Cl)cc(N4CC5(CCOCC5)C4)cc2Cl)C3)cc1N1C2CCC1COC2 [Compound 1-18, 4-[3-[2,6-Dichloro-4-(7-oxa-2-azaspiro[3.5]nonan-2-yl)benzoyl]-2,4-dihydro-1,3-benzoxazin-8-yl]-5-fluoro-2-(3-oxa-8-azabicyclo[3.2.1]octan-8-yl)benzoic acid]",4.3,2.5,6,8.7,,,,,,,
"COC1(OC)CN(c2cc(Cl)c(C(=O)N3COc4c(cccc4-c4ccc(C(=O)O)c(N5C6CCC5COC6)c4)C3)c(Cl)c2)C1 [Compound 5-16, 4-[3-[2,6-Dichloro-4-(3,3-dimethoxyazetidin-1-yl)benzoyl]-2,4-dihydro-1,3-benzoxazin-8-yl]-2-(3-oxa-8-azabicyclo[3.2.1]octan-8-yl)benzoic acid]",3.5,,,,,,,,,,"fold induction at 15 mg/kg [2, 7]: 3.6; fold induction at 15 mg/kg [2, 8]: 4.8; fold induction at 15 mg/kg [2, 9]: 14"
"COC1CC2(C1)CN(c1ccc(C(=O)N3COc4c(cccc4-c4cc(N5C6CCC5COC6)c(C(=O)O)cc4F)C3)c(Cl)c1)C2 [Compound 1-88, 4-[3-[2-Chloro-4-(6-methoxy-2-azaspiro[3.3]heptan-2-yl)benzoyl]-2,4-dihydro-1,3-benzoxazin-8-yl]-5-fluoro-2-(3-oxa-8-azabicyclo[3.2.1]octan-8-yl)benzoic acid]",2.1,,,,3,4.3,6.1,,,,"fold induction at 15 mg/kg [2, 7]: 3.4; fold induction at 15 mg/kg [2, 8]: 5.4; fold induction at 15 mg/kg [2, 9]: 8.9"
"COC1CC2(C1)CN(c1cc(Cl)c(C(=O)N3COc4c(cccc4-c4ccc(C(=O)O)c(N5C6CCC5COC6)c4)C3)c(Cl)c1)C2 [Compound 1-83, 4-[3-[2,6-Dichloro-4-(6-methoxy-2-azaspiro[3.3]heptan-2-yl)benzoyl]-2,4-dihydro-1,3-benzoxazin-8-yl]-2-(3-oxa-8-azabicyclo[3.2.1]octan-8-yl)benzoic acid]",2.4,,,,4.7,6.5,21,,,,
"O=C(O)c1cc(F)c(-c2cccc3c2OCN(C(=O)c2c(Cl)cc(N4CC5(CC(OC(F)F)C5)C4)cc2Cl)C3)cc1N1C2CCC1COC2 [Compound 1-21, 4-[3-[2,6-Dichloro-4-[6-(difluoromethoxy)-2-azaspiro[3.3]heptan-2-yl]benzoyl]-2,4-dihydro-1,3-benzoxazin-8-yl]-5-fluoro-2-(3-oxa-8-azabicyclo[3.2.1]octan-8-yl)benzoic acid]",2.9,3.7,4.7,10,,,,,,,
"O=C(O)c1cc(F)c(-c2cccc3c2OCN(C(=O)c2c(Cl)cc(N4CC5(CN(CC(F)F)C5)C4)cc2Cl)C3)cc1N1C2CCC1COC2 [Compound 7-2, 4-[3-[2,6-Dichloro-4-[6-(2,2-difluoroethyl)-2,6-diazaspiro[3.3]heptan-2-yl]benzoyl]-2,4-dihydro-1,3-benzoxazin-8-yl]-5-fluoro-2-(3-oxa-8-azabicyclo[3.2.1]octan-8-yl)benzoic acid]",4.6,,,,4.3,6.2,11,,,,
"CO[C@@H]1CN(c2cc(Cl)c(C(=O)N3COc4c(cccc4-c4cc(N5C6CCC5COC6)c(C(=O)O)cc4F)C3)c(Cl)c2)[C@@H]1C [Compound 1-4, 4-[3-[2,6-Dichloro-4-[(2R,3R)-3-methoxy-2-methylazetidin-1-yl]benzoyl]-2,4-dihydro-1,3-benzoxazin-8-yl]-5-fluoro-2-(3-oxa-8-azabicyclo[3.2.1]octan-8-yl)benzoic acid]",1.6,4.4,6.5,13,,,,5,8.1,20,
"CCN1CCN(c2cc(Cl)c(C(=O)N3COc4c(cccc4-c4cc(N5C6CCC5COC6)c(C(=O)O)cc4F)C3)c(Cl)c2)CC1 [Compound 4-8, 4-[3-[2,6-Dichloro-4-(4-ethylpiperazin-1-yl)benzoyl]-2,4-dihydro-1,3-benzoxazin-8-yl]-5-fluoro-2-(3-oxa-8-azabicyclo[3.2.1]octan-8-yl)benzoic acid]",5.8,3.4,6.7,6.2,,,,,,,
"O=C(O)c1cc(F)c(-c2cccc3c2OCN(C(=O)c2c(Cl)cc(N4CC5(C4)OCCCO5)cc2Cl)C3)cc1N1C2CCC1COC2 [Compound 5-2, 4-[3-[2,6-Dichloro-4-(5,9-dioxa-2-azaspiro[3.5]nonan-2-yl)benzoyl]-2,4-dihydro-1,3-benzoxazin-8-yl]-5-fluoro-2-(3-oxa-8-azabicyclo[3.2.1]octan-8-yl)benzoic acid]",1.3,4.3,6.9,20,,,,4,6.9,20,
"COCCOc1cc(Cl)c(C(=O)N2COc3c(cccc3-c3cc(N4C5CCC4COC5)c(C(=O)O)cc3F)C2)c(Cl)c1 [Compound 4-37, 4-[3-[2,6-Dichloro-4-(2-methoxyethoxy)benzoyl]-2,4-dihydro-1,3-benzoxazin-8-yl]-5-fluoro-2-(3-oxa-8-azabicyclo[3.2.1]octan-8-yl)benzoic acid]",6.3,4,8,5.4,,,,,,,
"O=C(O)c1cc(F)c(-c2cccc3c2OCN(C(=O)c2c(Cl)cc(N4CC5(C4)CC4(C5)OCCCO4)cc2Cl)C3)cc1N1C2CCC1COC2 [Compound 5-10, 4-[3-[2,6-Dichloro-4-(7,11-dioxa-2-azadispiro[3.1.56.14]dodecan-2-yl)benzoyl]-2,4-dihydro-1,3-benzoxazin-8-yl]-5-fluoro-2-(3-oxa-8-azabicyclo[3.2.1]octan-8-yl)benzoic acid]",3.2,,,,5.1,5.4,17,,,,
"CC1(C)COC2(CN(c3cc(Cl)c(C(=O)N4COc5c(cccc5-c5cc(N6C7CCC6COC7)c(C(=O)O)cc5F)C4)c(Cl)c3)C2)OC1 [Compound 5-9, 4-[3-[2,6-Dichloro-4-(7,7-dimethyl-5,9-dioxa-2-azaspiro[3.5]nonan-2-yl)benzoyl]-2,4-dihydro-1,3-benzoxazin-8-yl]-5-fluoro-2-(3-oxa-8-azabicyclo[3.2.1]octan-8-yl)benzoic acid]",,,,,3.7,6.7,15,5.2,6,19,"EC50 ([1]; HepG2 cells transfected with pARE-Luc, 4 hours at 37° C., luciferase activity of Example 1-54 or Example 17-23 at 3.75 μM defined as 100%, second printing of Table 20-1): 1.7 nM"
"C[C@@H]1CN(C)CCN1c1cc(Cl)c(C(=O)N2COc3c(cccc3-c3cc(N4C5CCC4COC5)c(C(=O)O)cc3F)C2)c(Cl)c1 [Compound 1-33, 4-[3-[2,6-Dichloro-4-[(2R)-2,4-dimethylpiperazin-1-yl]benzoyl]-2,4-dihydro-1,3-benzoxazin-8-yl]-5-fluoro-2-(3-oxa-8-azabicyclo[3.2.1]octan-8-yl)benzoic acid]",,3.7,5.5,13,,,,5.1,5.2,18,"EC50 ([1]; HepG2 cells, pARE-Luc reporter, 4 hours, 100% = Example 1-54 or Example 17-23 at 3.75 μM (repeat print of Table 20-1)): 1.9 nM"
